In the NIST ThermoML archive (doi:10.1021/je200659c):

Columns and labels:
[1] = xn = mol fraction of the nth substance listed; conditions: Maximal bubble pressure
[2] = Maximal bubble pressure

O [water] + CCCCCCn1cc[n+](C)c1.[Cl-]
Conditions	surface tension liquid-gas [mN/m]
[1], 297.7 K, x2 = 0	70.9

CCCCn1cc[n+](C)c1.CS(=O)(=O)[O-] [1-butyl-3-methylimidazolium methanesulfonate] + O
[1]
Conditions	surface tension liquid-gas [mN/m]
297.5 K, x1 = 0.004	65.1
297.7 K, x1 = 0.014	62.9
297.8 K, x1 = 0.026	59.6
297.8 K, x1 = 0.064	53.6
298 K, x1 = 0.115	50.3
298 K, x1 = 0.256	45.9
298.2 K, x1 = 0.173	48.2
298.2 K, x1 = 0.24	46.7
298.2 K, x1 = 0.291	45.1
304.7 K, x1 = 0.005	66.3
304.8 K, x1 = 0.177	47.9
304.9 K, x1 = 0.011	63.5
305.1 K, x1 = 0.109	50.8
305.1 K, x1 = 0.141	49.5
305.1 K, x1 = 0.16	48.5
305.2 K, x1 = 0.017	61.3
305.2 K, x1 = 0.08	52.4
305.3 K, x1 = 0.052	55.3
305.4 K, x1 = 0.027	59.2
312.2 K, x1 = 0.092	51.4
312.2 K, x1 = 0.184	47.8
312.3 K, x1 = 0.145	49.4
312.4 K, x1 = 0.069	53.2
312.6 K, x1 = 0.005	65.3
312.6 K, x1 = 0.019	60.3
312.8 K, x1 = 0.01	62.9
312.8 K, x1 = 0.041	56.3
318.1 K, x1 = 0.339	44.2
318.3 K, x1 = 0.259	45.5
318.7 K, x1 = 0.165	47.7
320.1 K, x1 = 0.034	56.1
320.1 K, x1 = 0.083	51.4
320.8 K, x1 = 0.023	58.2
321.3 K, x1 = 0.013	61
321.8 K, x1 = 0.004	64.8

O [water] + COS(=O)(=O)[O-].Cn1cc[n+](C)c1
Conditions	surface tension liquid-gas [mN/m]
[1], 296.8 K, x2 = 0	71.1

COS(=O)(=O)[O-].Cn1cc[n+](C)c1 [1,3-dimethylimidazolium methylsulfate] + O
[1]
Conditions	surface tension liquid-gas [mN/m]
297 K, x1 = 0.008	70.6
297.1 K, x1 = 0.025	69.5
297.3 K, x1 = 0.055	68.2
297.6 K, x1 = 0.093	67.3
297.6 K, x1 = 0.141	66.4
297.7 K, x1 = 0.183	65.7
298 K, x1 = 0.222	65.3
298.1 K, x1 = 0.261	64.7
298.1 K, x1 = 0.292	64.7

O [water]
[2]
Conditions	surface tension liquid-gas [mN/m]
296.8 K	71.1
297 K	71.9
297.7 K	70.9
300 K	71.6
301.2 K	71.4
304.3 K	70.7
312.4 K	69.4
321.3 K	68.1

CCn1cc[n+](C)c1.CS(=O)(=O)[O-] [1-ethyl-3-methylimidazolium methanesulfonate] + O
[1]
Conditions	surface tension liquid-gas [mN/m]
300 K, x1 = 0.002	72.1
300 K, x1 = 0.03	69.8
300.1 K, x1 = 0.025	70.4
300.2 K, x1 = 0.004	71.6
300.2 K, x1 = 0.006	71.4
300.3 K, x1 = 0.01	71.1
300.4 K, x1 = 0.015	70.7
300.4 K, x1 = 0.019	70.5
301 K, x1 = 0.065	67.9
301.2 K, x1 = 0.274	60.7
301.3 K, x1 = 0.002	71.4
301.3 K, x1 = 0.004	70.9
301.3 K, x1 = 0.007	70.4
301.3 K, x1 = 0.013	69.8
301.3 K, x1 = 0.019	69.2
301.3 K, x1 = 0.026	68.8
301.3 K, x1 = 0.032	68.4
301.3 K, x1 = 0.376	59.2
301.4 K, x1 = 0.01	70.1
301.7 K, x1 = 0.112	65.6
301.7 K, x1 = 0.485	58.1
302.4 K, x1 = 0.08	66
302.7 K, x1 = 0.133	63.5
302.7 K, x1 = 0.181	62.9
302.9 K, x1 = 0.199	61.2
303.2 K, x1 = 0.474	57.3
303.3 K, x1 = 0.388	57.7
303.8 K, x1 = 0.284	58.7

O [water] + CCCCn1cc[n+](C)c1.CS(=O)(=O)[O-]
[1], x2 = 0
Conditions	surface tension liquid-gas [mN/m]
297 K	71.9
304.3 K	70.7
312.4 K	69.4
321.3 K	68.1

CCCCCCn1cc[n+](C)c1.[Cl-] [1-hexyl-3-methylimidazolium chloride] + O
[1]
Conditions	surface tension liquid-gas [mN/m]
297.2 K, x1 = 0.003	61.8
297.4 K, x1 = 0.009	55.2
297.4 K, x1 = 0.02	50.5
297.6 K, x1 = 0.045	47.6
297.7 K, x1 = 0.013	52.8
297.8 K, x1 = 0.073	46
297.9 K, x1 = 0.121	43.8
298 K, x1 = 0.092	45
298.2 K, x1 = 0.143	43.2

O [water] + CCn1cc[n+](C)c1.CS(=O)(=O)[O-]
[1], x2 = 0
Conditions	surface tension liquid-gas [mN/m]
300 K	71.6
301.2 K	71.4
